Laboratory results: patent US10889579B2, “Thiazine derivatives as β-secretase inhibitors and methods of use” (AMGEN INC., priority 2016, dated 2021)

Assays:
BACE1 [1] = biological target: T1, BACE1 (Homo sapiens (Human), UniProt P56817); test: In vitro enzymatic BACE1 FRET assay; assay type: biochemical; details: pH 4.5, 1 h pre-incubation, read-out: BACE1 Enzyme IC50
Protocol: (§1) In Vitro Enzymatic BACE1 and BACE2 FRET (Fluorescence Resonance Energy Transfer) Assays
(§2) The cDNAs for both human recombinant BACE1 and 2 with C-terminal 6-His Tags were cloned into transient protein expression vectors, which were subsequently transfected into mammalian cell lines. These recombinant proteins were further purified using Ni-NTA affinity chromatography (Qiagen). The assay buffer used in these screens was 0.05 M acetate, pH 4.5, 8% DMSO final, 100 μM genapol (which is a nonionic detergent, below its Critical Micelle Concentration). The β-secretase enzyme (0.02 nM for BACE1 and 0.64 nM for BACE2), which was pre-incubated for one hour with the test compound, typically in about luL of DMSO according to a serial dilution, was added thereto. The assay was effectively started by the addition of FRET substrate (50 nM) and the combination was incubated for one hour. The FRET assay was terminated by the addition of tris buffer, which raised the pH to neutrality, and the fluorescence was determined. The FRET substrate was a peptide with commercially available fluorophore and quencher, on opposite sides of the BACE cleavage site. The specific FRET substrate used in this assay was made by Amgen in-house. Commercially available FRET substrates, for example, the FRET substrate offered with the BACE1 FRET Assay Kit sold by ThermoFisher Scientific (Catalog Number P2985), may be used in this assay with the appropriate modifications, which are within the purview of the ability of a person with ordinary skill in the art. Proteolytic cleavage of the FRET substrate released quenching of fluorescence (excitation 488 nm and emission 590 nm).
Target sequence in this assay (P56817 46-501): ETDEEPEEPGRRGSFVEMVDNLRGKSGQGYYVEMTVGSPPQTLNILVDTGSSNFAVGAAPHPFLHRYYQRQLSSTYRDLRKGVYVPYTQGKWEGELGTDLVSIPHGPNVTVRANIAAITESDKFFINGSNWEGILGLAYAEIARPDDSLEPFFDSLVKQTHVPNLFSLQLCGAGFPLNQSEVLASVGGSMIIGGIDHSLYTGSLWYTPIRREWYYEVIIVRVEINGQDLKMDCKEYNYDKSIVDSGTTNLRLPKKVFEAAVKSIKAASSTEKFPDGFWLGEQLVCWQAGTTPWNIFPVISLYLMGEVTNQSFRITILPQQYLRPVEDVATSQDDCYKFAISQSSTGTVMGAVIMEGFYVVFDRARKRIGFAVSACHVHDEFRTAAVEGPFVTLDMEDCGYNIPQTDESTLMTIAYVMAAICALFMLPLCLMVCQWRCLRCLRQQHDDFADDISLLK

BACE1 [2] = biological target: T1, BACE1; test: In vitro BACE1 cell-based assay (Aβ40 in conditioned medium, HTRF); details: Aβ40 in conditioned medium of cells stably expressing APP, 24 h
Protocol: In Vitro BACE1 Cell-Based Assay
The cell-based assay measures inhibition or reduction of Aβ40 in conditioned medium of test compound treated cells expressing amyloid precursor protein. Cells stably expressing Amyloid Precursor Protein (APP) were plated at a density of 45K cells/well in 384 well plates (Corning/BioCoat 354663). The test compounds were then added to cells in 22-point dose response concentrations with the starting concentration being 62.5 μM. The compounds were diluted from stock solutions in DMSO and the final DMSO concentration of the test compounds on cells was 0.625%. The cells were cultivated overnight at 37° C. and 5% CO2 in DMEM supplemented with 10% FBS. After 24 h of incubation with the test compounds, the conditioned media was collected and the Aβ40 levels were determined using HTRF (Homogeneous Time Resolved Fluorescence). The IC50 of the compound was calculated from the percent of control or percent inhibition of Aβ 40 as a function of the concentration of the test compound.
The HTRF to detect Aβ40 was performed in 384 well plates (Costar 3658). The antibody pair that were used to detect Aβ 40 from cell supernatants were ConfAb40 antibody (Amgen in-house) and biotinylated 6E10 (BIOLEGEND). As an alternative to ConfAb40, a commercially available antibody, Anti-beta Amyloid 1-40 antibody [BDI350] from Abcam, Cambridge, Mass. 02139-1517 (Product code: ab20068), may be used in this assay. The concentrations were 0.35 μg/mL of ConfAb40 antibody and 1.33 μg/mL of 6E10-biotinylated antibody, as well as 4.5 μg/mL of Streptavidin Allophycocyanin Conjugate (ThermoFisher Scientific) in HTRF Buffer (1M Hepes pH 7.5, 1M NaCL, 1% BSA, 0.5% Tween 20).
The conditioned media was incubated with above antibodies and Streptavidin Allophycocyanin Conjugate for 30-60 minutes at 23° C. The final readout was performed on Envision from PerkinElmer.
Target sequence in this assay (P56817 46-501, species assumed): as the sequence (P56817 46-501) above

human recombinant BACE2 = human recombinant BACE2 (Homo sapiens (Human), UniProt Q9Y5Z0); test: In vitro enzymatic BACE2 FRET assay; assay type: biochemical; details: pH 4.5, 1 h pre-incubation, read-out: BACE2 Enzyme IC50
human recombinant BACE2, sequence (Q9Y5Z0 63-518): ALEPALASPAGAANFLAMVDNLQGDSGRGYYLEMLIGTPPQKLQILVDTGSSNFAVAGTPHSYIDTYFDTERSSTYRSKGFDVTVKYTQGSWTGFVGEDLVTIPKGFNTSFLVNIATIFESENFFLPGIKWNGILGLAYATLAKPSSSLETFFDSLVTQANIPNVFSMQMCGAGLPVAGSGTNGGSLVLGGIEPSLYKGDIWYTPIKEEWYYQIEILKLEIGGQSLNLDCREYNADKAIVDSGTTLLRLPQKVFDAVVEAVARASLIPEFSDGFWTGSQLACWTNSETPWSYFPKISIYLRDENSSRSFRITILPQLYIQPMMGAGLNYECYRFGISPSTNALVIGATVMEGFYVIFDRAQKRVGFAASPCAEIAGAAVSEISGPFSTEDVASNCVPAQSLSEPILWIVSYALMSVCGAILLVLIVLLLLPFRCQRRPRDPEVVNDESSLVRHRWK
Protocol: as §1, §2

Recombinant CatD = Recombinant CatD (Homo sapiens (Human), UniProt P07339); test: In vitro enzymatic Cathepsin D (CatD) FRET assay; assay type: biochemical; details: pH 3.5, 1 h pre-incubation, read-out: Cat D Enzyme IC50
Recombinant CatD, sequence (P07339 65-412): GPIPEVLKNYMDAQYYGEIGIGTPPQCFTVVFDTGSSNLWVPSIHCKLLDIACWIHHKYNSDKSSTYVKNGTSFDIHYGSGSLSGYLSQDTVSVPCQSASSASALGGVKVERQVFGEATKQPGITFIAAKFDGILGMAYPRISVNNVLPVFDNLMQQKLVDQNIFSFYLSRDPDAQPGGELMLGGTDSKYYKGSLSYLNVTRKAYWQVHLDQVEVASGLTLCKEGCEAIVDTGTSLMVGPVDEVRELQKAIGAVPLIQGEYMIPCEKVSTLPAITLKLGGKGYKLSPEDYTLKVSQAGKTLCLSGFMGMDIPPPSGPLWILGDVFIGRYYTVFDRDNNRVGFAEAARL
Protocol: In Vitro Enzymatic Cathepsin D (CatD) FRET Assay Recombinant CatD was expressed in CHO cells. The assay buffer for CatD was 0.05 M citrate pH 3.5, 10% DMSO final, 5 mM CHAPS. The CatD enzyme (9 nM) was pre-incubated for one hour with inhibitors, typically in about luL of DMSO according to a serial dilution, is added thereto. The assays was effectively started by the addition of different FRET substrates (20 nM for CatD) and the combination was incubated for one hour. The FRET assay was terminated with by addition of tris buffer, which raises the pH to neutrality, and the fluorescence was determined. The FRET substrate was a peptide with commercially available fluorophore and quencher, on opposite sides of the CatD cleavage site. The CatD substrate peptide sequence was based on sequence #1 of Table 1 from Gulnik et al., FEBS Lett. 413(2):379-384 (1997). Proteolytic cleavage of the FRET substrate released quenching of fluorescence (CatD excitation 500 nm and emission 580 nm). The in vitro CatD FRET assay data for each of the Examples is provided in Table 2, conducted by the first procedure described above. […] Thus, with this surprising selectivity profile, the compounds provided herein are believed to minimize, reduce or completely eliminate any risk of retinal atrophy and abnormal development of the eye and of the retinal pigmented epithelium as it relates to the normal function and activity of CatD.

| SMILES | IC50 (BACE1 [1]) [nM] | IC50 (BACE1 [2]) [nM] | IC50 (human recombinant BACE2) [nM] | IC50 (Recombinant CatD) [nM] |
| --- | --- | --- | --- | --- |
| COC(=O)[C@H]1C[C@@](C)(c2cc(/C=C(\F)c3ccc(Cl)cn3)ccc2F)N=C(N)S1 (single isomer, unassigned) [Example 104] | 212 | 468 | 185 | 133000 |
| COC(=O)[C@@H]1C[C@@](C)(c2cc(/C=C(\F)c3ccc(Cl)cn3)ccc2F)N=C(N)S1 (single isomer, unassigned) [Example 105] | 45 | 377 | 49 | 73700 |
| C[C@@]1(c2cc(/C=C(\F)c3ccc(Cl)cn3)ccc2F)C=CSC(N)=N1 [Example 100, (S,Z)-4-(5-(2-(5-chloropyridin-2-yl)-2-fluorovinyl)-2-fluorophenyl)-4-methyl-4H-1,3-thiazin-2-amine] | 220 | 357 | 191 | 36900 |
| C[C@@]1(c2cc(/C=C(\F)c3ccc(C#N)cn3)ccc2F)C=CSC(N)=N1 [Example 101, (S,Z)-6-(2-(3-(2-amino-4-methyl-4H-1,3-thiazin-4-yl)-4-fluorophenyl)-1-fluorovinyl)nicotinonitrile] | 98 | 49 | 601 | 52000 |
| C[C@@]1(c2cc(/C=C(\F)c3ccc(Cl)cn3)ccc2F)CCSC(N)=N1 [Example 102, (S,Z)-4-(5-(2-(5-chloropyridin-2-yl)-2-fluorovinyl)-2-fluorophenyl)-4-methyl-5,6-dihydro-4H-1,3-thiazin-2-amine] | 124 | 148 | 64 | 211000 |
| C[C@@]1(c2cc(/C=C(\F)c3ccc(C#N)cn3)ccc2F)CCSC(N)=N1 [Example 103, (S,Z)-6-(2-(3-(2-amino-4-methyl-5,6-dihydro-4H-1,3-thiazin-4-yl)-4-fluorophenyl)-1-fluorovinyl)nicotinonitrile] | 74 | 15 | 482 | 186000 |
| COC(=O)[C@]1(C)C[C@@](C)(c2cc(/C=C(\F)c3ccc(Cl)cn3)ccc2F)N=C(N)S1 [Example 106, (4S,6S)-methyl 2-amino-4-(5-((Z)-2-(5-chloropyridin-2-yl)-2-fluorovinyl)-2-fluorophenyl)-4,6-dimethyl-5,6-dihydro-4H-1,3-thiazine-6-carboxylate] | 54 | 215 | 75 | 91000 |
| COC(=O)[C@@]1(C)C[C@@](C)(c2cc(/C=C(\F)c3ccc(Cl)cn3)ccc2F)N=C(N)S1 [Example 107, (4S,6R)-methyl 2-amino-4-(5-((Z)-2-(5-chloropyridin-2-yl)-2-fluorovinyl)-2-fluorophenyl)-4,6-dimethyl-5,6-dihydro-4H-1,3-thiazine-6-carboxylate] | 68 | 522 | 90 | 282000 |
| COC(=O)[C@@]1(C)C[C@@](C)(c2cc(/C=C(\F)c3ccc(C#N)cn3)ccc2F)N=C(N)S1 [Example 108, (4S,6R)-methyl 2-amino-4-(5-((Z)-2-(5-cyanopyridin-2-yl)-2-fluorovinyl)-2-fluorophenyl)-4,6-dimethyl-5,6-dihydro-4H-1,3-thiazine-6-carboxylate] | 16 | 44 | 231 | 386000 |
| COC(=O)[C@]1(C)C[C@@](C)(c2cc(/C=C(\F)c3ccc(C#N)cn3)ccc2F)N=C(N)S1 [Example 109, (4S,6S)-methyl 2-amino-4-(5-((Z)-2-(5-cyanopyridin-2-yl)-2-fluorovinyl)-2-fluorophenyl)-4,6-dimethyl-5,6-dihydro-4H-1,3-thiazine-6-carboxylate] | 16 | 24 | 281 | 95600 |
| C[C@@]1(C(=O)N2CCOCC2)C[C@@](C)(c2cc(/C=C(\F)c3ccc(C#N)cn3)ccc2F)N=C(N)S1 [Example 110, 6-((Z)-2-(3-((4S,6S)-2-amino-4,6-dimethyl-6-(morpholine-4-carbonyl)-5,6-dihydro-4H-1,3-thiazin-4-yl)-4-fluorophenyl)-1-fluorovinyl)nicotinonitrile] | 4 | 2 | 130 | 250000 |
| C[C@]1(C(=O)N2CCOCC2)C[C@@](C)(c2cc(/C=C(\F)c3ccc(C#N)cn3)ccc2F)N=C(N)S1 [Example 111, 6-((Z)-2-(3-((4S,6R)-2-amino-4,6-dimethyl-6-(morpholine-4-carbonyl)-5,6-dihydro-4H-1,3-thiazin-4-yl)-4-fluorophenyl)-1-fluorovinyl)nicotinonitrile] | 98 | 201 | 1470 | 300000 |
| C#CCOc1cnc(/C(F)=C/c2ccc(F)c([C@]3(C)C[C@](C)(C(=O)NC)SC(N)=N3)c2)cn1 [Example 112, (4S,6R)-2-amino-4-(2-fluoro-5-((Z)-2-fluoro-2-(5-(2-propyn-1-yloxy)-2-pyrazinyl)ethenyl)phenyl)-N,4,6-trimethyl-5,6-dihydro-4H-1,3-thiazine-6-carboxamide] | 37 | 11 | 1300 | 79900 |
| C#CCOc1cnc(/C(F)=C/c2ccc(F)c([C@]3(C)C[C@@](C)(C(=O)NC)SC(N)=N3)c2)cn1 [Example 113, (4S,6S)-2-amino-4-(2-fluoro-5-((Z)-2-fluoro-2-(5-(2-propyn-1-yloxy)-2-pyrazinyl)ethenyl)phenyl)-N,4,6-trimethyl-5,6-dihydro-4H-1,3-thiazine-6-carboxamide] | 22 | 10 | 835 | 178000 |
| C#CCOc1cnc(/C(F)=C/c2ccc(F)c([C@]3(C)C[C@@](C)(C(=O)N4CCOCC4)SC(N)=N3)c2)cn1 [Example 114, ((4S,6S)-2-amino-4-(2-fluoro-5-((Z)-2-fluoro-2-(5-(prop-2-yn-1-yloxy)pyrazin-2-yl)vinyl)phenyl)-4,6-dimethyl-5,6-dihydro-4H-1,3-thiazin-6-yl)(morpholino)methanone] | 6 | 2 | 358 | 21800 |
| C#CCOc1cnc(/C(F)=C/c2ccc(F)c([C@]3(C)C[C@@](C)(C(=O)NCC(F)F)SC(N)=N3)c2)cn1 [Example 115, (4S,6S)-2-amino-N-(2,2-difluoroethyl)-4-(2-fluoro-5-((Z)-2-fluoro-2-(5-(prop-2-yn-1-yloxy)pyrazin-2-yl)vinyl)phenyl)-4,6-dimethyl-5,6-dihydro-4H-1,3-thiazine-6-carboxamide] | 24 | 18 | 760 | 40200 |
